Legend:
CDK9 = target: T1, CDK9 (Homo sapiens, UniProt P50750); experiment: CDK protein degradation activity (Western blotting), CDK9; type: cell-based; conditions: MDA-MB-231 cells, 16 hours, Western blot
T1 construct: endogenous in cells; host or cells: MDA-MB-231
Outline: (§1)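 Degradation is judged from CDK2 and CDK9 band intensity relative to tubulin and DMSO-treated cells, after 16 h exposure of MDA-MB-231 cells to three compound concentrations (100 nM, 1 μM, 10 μM).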

CDK2 = target: T2, CDK2 (Homo sapiens, UniProt P24941); experiment: CDK protein degradation activity (Western blotting), CDK2; type: cell-based; conditions: MDA-MB-231 cells, 16 hours, Western blot
T2 construct: endogenous in cells; host or cells: MDA-MB-231
Outline: as §1

T1 sequence (P50750 whole entry): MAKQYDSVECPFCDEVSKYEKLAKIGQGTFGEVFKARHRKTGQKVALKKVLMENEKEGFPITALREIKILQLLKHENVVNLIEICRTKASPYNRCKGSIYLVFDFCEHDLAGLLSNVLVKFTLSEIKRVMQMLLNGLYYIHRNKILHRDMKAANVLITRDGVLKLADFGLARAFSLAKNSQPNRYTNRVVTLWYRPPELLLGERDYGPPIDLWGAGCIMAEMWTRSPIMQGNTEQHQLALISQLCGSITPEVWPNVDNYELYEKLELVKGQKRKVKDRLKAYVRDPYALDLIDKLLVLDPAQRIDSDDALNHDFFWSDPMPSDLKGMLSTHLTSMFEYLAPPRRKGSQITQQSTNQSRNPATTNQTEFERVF

Row | SMILES | Enzyme degradation CDK9 (% remaining) @ 0.1 μM (CDK9) | Enzyme degradation CDK9 (% remaining) @ 1 μM (CDK9) | Enzyme degradation CDK9 (% remaining) @ 10 μM (CDK9) | Enzyme degradation CDK2 (% remaining) @ 0.1 μM (CDK2) | Enzyme degradation CDK2 (% remaining) @ 1 μM (CDK2) | Enzyme degradation CDK2 (% remaining) @ 10 μM (CDK2)
1 | O=C1CC[C@H](N2C(=O)c3ccc(N4CCC(C(=O)N5CCC(CN6CCN(c7ccc(Nc8ncnc9c8ncn9C8CC(NC(=O)Cc9ccccc9)C8)cc7)CC6)CC5)CC4)cc3C2=O)C(=O)N1 (stereo partly drawn) [Compound 330, N-((1s,3s)-3-(6-((4-(4-((1-(1-(2-(2,6-dioxopiperidin-3-yl)-1,3-dioxoisoindolin-5-yl)piperidin-4-carbonyl)piperidin-4-yl)methyl)piperazin-1-yl)phenyl)amino)-9H-purin-9-yl)cyclobutyl)-2-phenylacetamide] | 0/0/0% | 0/0/0% | 0/0/0% | 60% | 60% | 40%
2 | O=C1CC[C@H](N2C(=O)c3ccc(N4CC(C(=O)N5CCN(CC6CCN(c7ccc(Nc8ncnc9c8ncn9C8CC(NC(=O)Cc9ccccc9)C8)cc7)CC6)CC5)C4)cc3C2=O)C(=O)N1 (stereo partly drawn) [Compound 331, N-((1s,3s)-3-(6-((4-(4-((4-(1-(2-(2,6-dioxopiperidin-3-yl)-1,3-dioxoisoindolin-5-yl)azetidin-3-carbonyl)piperazin-1-yl)methyl)piperidin-1-yl)phenyl)amino)-9H-purin-9-yl)cyclobutyl)-2-phenylacetamide] | 30% | 10% | 0% | 50% | 30% | 30%
3 | O=C1CCC(N2C(=O)c3cc(F)c(N4CCC(N5CCN(c6ccc(Nc7ncnc8c7ncn8[C@H]7C[C@@H](NC(=O)Cc8ccccc8)C7)cc6)CC5)CC4)cc3C2=O)C(=O)N1 (stereo partly drawn) [Compound 333, N-((1s,3s)-3-(6-((4-(4-(1-(2-(2,6-dioxopiperidin-3-yl)-6-fluoro-1,3-dioxoisoindolin-5-yl)piperidin-4-yl)piperazin-1-yl)phenyl)amino)-9H-purin-9-yl)cyclobutyl)-2-phenylacetamide] | 50% | 0% | 0% | 50% | 10% | 10%
4 | O=C1CC[C@H](n2nnc3ccc(N4CCC(N5CCN(c6ccc(Nc7ncnc8c7ncn8[C@H]7C[C@@H](NC(=O)Cc8ccccc8)C7)cc6)CC5)CC4)cc3c2=O)C(=O)N1 [Compound 334, N-((1s,3s)-3-(6-((4-(4-(1-(3-(2,6-dioxopiperidin-3-yl)-4-oxo-3,4-dihydrobenzo[d][1,2,3]triazin-6-yl)piperidin-4-yl)piperazin-1-yl)phenyl)amino)-9H-purin-9-yl)cyclobutyl)-2-phenylacetamide] | 20% | 10% | 10% | 60% | 50% | 50%
5 | O=C1CC[C@H](N2C(=O)c3ccc(N4CCN(C5CC6(CCN(c7ccc(Nc8ncnc9c8ncn9[C@H]8C[C@@H](NC(=O)Cc9ccccc9)C8)cc7)CC6)C5)CC4)cc3C2=O)C(=O)N1 [Compound 335, N-((1s,3s)-3-(6-((4-(2-(4-(2-(2,6-dioxopiperidin-3-yl)-1,3-dioxoisoindolin-5-yl)piperazin-1-yl)-7-azaspiro[3.5]nonan-7-yl)phenyl)amino)-9H-purin-9-yl)cyclobutyl)-2-phenylacetamide] | 70% | 0% | 0% | 20% | 10% | 10%
6 | O=C1CC[C@H](N2C(=O)c3cc(F)c(N4CCN(C5CC6(CCN(c7ccc(Nc8ncnc9c8ncn9[C@H]8C[C@@H](NC(=O)Cc9ccccc9)C8)cc7)CC6)C5)CC4)cc3C2=O)C(=O)N1 [Compound 336, N-((1s,3s)-3-(6-((4-(2-(4-(2-(2,6-dioxopiperidin-3-yl)-6-fluoro-1,3-dioxoisoindolin-5-yl)piperazin-1-yl)-7-azaspiro[3.5]nonan-7-yl)phenyl)amino)-9H-purin-9-yl)cyclobutyl)-2-phenylacetamide] | 100% | 0% | 0% | 100% | 0% | 0%
7 | O=C1CC[C@H](n2nnc3ccc(N4CCN(C5CC6(CCN(c7ccc(Nc8ncnc9c8ncn9C8CC(NC(=O)Cc9ccccc9)C8)cc7)CC6)C5)CC4)cc3c2=O)C(=O)N1 (stereo partly drawn) [Compound 337, N-((1s,3s)-3-(6-((4-(2-(4-(3-(2,6-dioxopiperidin-3-yl)-4-oxo-3,4-dihydrobenzo[d][1,2,3]triazin-6-yl)piperazin-1-yl)-7-azaspiro[3.5]nonan-7-yl)phenyl)amino)-9H-purin-9-yl)cyclobutyl)-2-phenylacetamide] | 50% | 10% | 10% | 0/0/0% | 0/0/0% | 0/0/0%
8 | O=C1CC[C@H](N2C(=O)c3ccc(N4CCN(CCC5CCN(c6ccc(Nc7ncnc8c7ncn8[C@H]7C[C@@H](NC(=O)Cc8ccccc8)C7)cc6)CC5)CC4)cc3C2=O)C(=O)N1 [Compound 338, N-((1s,3s)-3-(6-((4-(4-(2-(4-(2-(2,6-dioxopiperidin-3-yl)-1,3-dioxoisoindolin-5-yl)piperazin-1-yl)ethyl)piperidin-1-yl)phenyl)amino)-9H-purin-9-yl)cyclobutyl)-2-phenylacetamide] | 50% | 0% | 0% | 10% | 0% | 0%

The next lines start with the values.

Row | Enzyme degradation CDK9 (% remaining) @ 0.1 μM (CDK9) | Enzyme degradation CDK9 (% remaining) @ 1 μM (CDK9) | Enzyme degradation CDK9 (% remaining) @ 10 μM (CDK9) | Enzyme degradation CDK2 (% remaining) @ 0.1 μM (CDK2) | Enzyme degradation CDK2 (% remaining) @ 1 μM (CDK2) | Enzyme degradation CDK2 (% remaining) @ 10 μM (CDK2) | SMILES
9 | 0/0/0% | 0/0/0% | 0/0/0% | 0/0/0% | 0/0/0% | 0/0/0% | O=C1CC[C@H](N2C(=O)c3ccc(N4CC(C(=O)N5CCC(N6CCN(c7ccc(Nc8ncnc9c8ncn9[C@H]8C[C@@H](NC(=O)Cc9ccccc9)C8)cc7)CC6)CC5)C4)cc3C2=O)C(=O)N1 [Compound 342, N-((1s,3s)-3-(6-((4-(4-(1-(1-(2-(2,6-dioxopiperidin-3-yl)-1,3-dioxoisoindolin-5-yl)azetidin-3-carbonyl)piperidin-4-yl)piperazin-1-yl)phenyl)amino)-9H-purin-9-yl)cyclobutyl)-2-phenylacetamide]
10 | 10% | 0% | 0% | 30% | 30% | 40% | O=C1CC[C@H](N2C(=O)c3ccc(N4CCC(C(=O)N5CCC(N6CCN(c7ccc(Nc8ncnc9c8ncn9[C@H]8C[C@@H](NC(=O)Cc9ccccc9)C8)cc7)CC6)CC5)CC4)cc3C2=O)C(=O)N1 [Compound 343, N-((1s,3s)-3-(6-((4-(4-(1-(1-(2-(2,6-dioxopiperidin-3-yl)-1,3-dioxoisoindolin-5-yl)piperidin-4-carbonyl)piperidin-4-yl)piperazin-1-yl)phenyl)amino)-9H-purin-9-yl)cyclobutyl)-2-phenylacetamide]
11 | 30/30/30% | 30/30/30% | 30/30/30% | 10% | 0% | 0% | O=C1CCC(n2nnc3ccc(N4CC(N5CCN(c6ccc(Nc7ncnc8c7ncn8[C@H]7C[C@@H](NC(=O)Cc8ccccc8)C7)cc6)CC5)C4)cc3c2=O)C(=O)N1 (stereo partly drawn) [Compound 346, N-((1s,3s)-3-(6-((4-(4-(1-(3-(2,6-dioxopiperidin-3-yl)-4-oxo-3,4-dihydrobenzo[d][1,2,3]triazin-6-yl)azetidin-3-yl)piperazin-1-yl)phenyl)amino)-9H-purin-9-yl)cyclobutyl)-2-phenylacetamide]
12 | 30% | 0% | 0% | 10% | 0% | 0% | O=C1CC[C@H](N2C(=O)c3ccc(N4CCN(CCCC5CCN(c6ccc(Nc7ncnc8c7ncn8C7CC(NC(=O)Cc8ccccc8)C7)cc6)CC5)CC4)cc3C2=O)C(=O)N1 (stereo partly drawn) [Compound 347, N-((1s,3s)-3-(6-((4-(4-(3-(4-(2-(2,6-dioxopiperidin-3-yl)-1,3-dioxoisoindolin-5-yl)piperazin-1-yl)propyl)piperidin-1-yl)phenyl)amino)-9H-purin-9-yl)cyclobutyl)-2-phenylacetamide]
13 | 80% | 20% | 0% | 30% | 10% | 10% | O=C1CC[C@H](N2C(=O)c3cc(F)c(N4CCN(CCCC5CCN(c6ccc(Nc7ncnc8c7ncn8[C@H]7C[C@@H](NC(=O)Cc8ccccc8)C7)cc6)CC5)CC4)cc3C2=O)C(=O)N1 [Compound 348, N-((1s,3s)-3-(6-((4-(4-(3-(4-(2-(2,6-dioxopiperidin-3-yl)-6-fluoro-1,3-dioxoisoindolin-5-yl)piperazin-1-yl)propyl)piperidin-1-yl)phenyl)amino)-9H-purin-9-yl)cyclobutyl)-2-phenylacetamide]
